Publication PMC8286831, “Identifying SARS-CoV-2 antiviral compounds by screening for small molecule inhibitors of nsp13 helicase” (Biochemical Journal, 2021)
Where “and” joins values, the source holds several entries; their conditions need not be identical. Equal values may be shown once. Entries after “also recorded” stand apart in the source; their conditions may differ. Read-outs that look alike come from different tables or passages of the source.

Columns and labels:
[1] = molecular target: T1, SARS-CoV-2 RdRp holoenzyme (Severe acute respiratory syndrome coronavirus 2, UniProt P0DTD1); test: FRET-based RdRp strand displacement assay; assay type: biochemical
T1 construct: (Sf nsp12-3F/7L8 preincubated with Sf 7H8 at a 1:3 ratio); 3F (3xFlag) (C); made in house; host or cells: 'Sf', read as Spodoptera frugiperda insect cells (my inference from the prefix); details are in Bertolin et al

[2] = molecular target: T2, SARS-CoV-2 nsp13 helicase (Severe acute respiratory syndrome coronavirus 2, UniProt P0DTD1); assay type: biochemical
[3] = molecular target: T2, SARS-CoV-2 nsp13 helicase; test: biochemical; assay type: biochemical
SARS-CoV-2 = test: microbe, parasite or virus in culture; assay type: cell-based; conditions: for EC50: read-out: EC50 viral inhibition
[4] = RNA (RdRp substrate), 0.3 mM each NTP, 0.02% Tween-20 in RdRp assay buffer, read-out: IC50 RdRp
[5] = RNA (nsp13 substrate), 0.3 mM ATP, 0.02% Tween-20 in RdRp assay buffer, read-out: IC50 nsp13
[6] = read-out: IC50 + 0.02% Tween-20
[7] = read-out: IC50 + 0.01% Triton X-100
[8] = Severe acute respiratory syndrome coronavirus 2, Vero C1008, 22 h
[9] = IC50 0.02% Tween-20 + (presence)
[10] = IC50 0.02% Tween-20 − (absence)

Row | SMILES | inhibition of duplex unwinding in gel-based assay [2] | IC50 [3, 5] [µM] | IC50 [3, 6] [µM] | IC50 ([3]; read-out: IC50 No detergent) [µM] | IC50 ([3]; IC50 No detergent) | EC50 (SARS-CoV-2) | nsp13 inhibition and detergent sensitivity [3] | other results
1 | Cc1cc(-c2ccc(N=Nc3c(S(=O)(=O)[O-])cc4cc(S(=O)(=O)[O-])cc(N)c4c3O)c(C)c2)ccc1N=Nc1c(S(=O)(=O)[O-])cc2cc(S(=O)(=O)[O-])cc(N)c2c1O.[Na+].[Na+].[Na+].[Na+] [Diphenyl Blue] | clearly reduced the generation of single-stranded Cy3 strand | 4 | 4.7 | 5.6 | – | – | – | IC50 [1, 4]: 5000 nM
2 | Cc1cc(-c2ccc(/N=N/c3ccc4c(S(=O)(=O)O)cc(S(=O)(=O)O)c(N)c4c3O)c(C)c2)ccc1/N=N/c1ccc2c(S(=O)(=O)O)cc(S(=O)(=O)O)c(N)c2c1O [Evans Blue] | clearly reduced the generation of single-stranded Cy3 strand | 1.5 | – | – | 1.2 µM | – | – | –
3 | NC(=S)N/N=C/c1coc2ccccc2c1=O.[Cl][Cu][Cl] [FPA 124] | clearly reduced the generation of single-stranded Cy3 strand | – | 8.4 | 8.5 | – | 14 µM and ~14 µM | no detergent sensitivity; also recorded: largely insensitive to detergent addition | IC50 [3, 7]: 8.9 µM; IC50 ([3]; read-out: IC50 -Triton X-100): 9.1 µM; IC50 ([3]; read-out: IC50 against nsp13 in vitro): ~9 µM
4 | O=c1c(O)c(-c2cc(O)c(O)c(O)c2)oc2cc(O)cc(O)c12 [Myricetin] | inhibited nsp13 with less efficiency | – | – | – | – | 31.6 µM | clear inhibition only in the absence of detergent | EC50 (SARS-CoV-2; [8]): 32 µM
5 | O=C(Nc1cccc(C(=O)Nc2ccc(S(=O)(=O)[O-])c3cc(S(=O)(=O)[O-])cc(S(=O)(=O)[O-])c23)c1)Nc1cccc(C(=O)Nc2ccc(S(=O)(=O)[O-])c3cc(S(=O)(=O)[O-])cc(S(=O)(=O)[O-])c23)c1.[Na+].[Na+].[Na+].[Na+].[Na+].[Na+] [NF 023] | clearly reduced the generation of single-stranded Cy3 strand | 0.7 | 0.92 | – | – | – | – | nsp13 inhibition and detergent sensitivity ([3]; presence or absence of non-ionic detergent): largely insensitive to detergent addition; IC50 ([3]; read-out: IC50 0.02% Tween-20 + (presence)): 0.64 µM; IC50 ([3]; read-out: IC50 0.02% Tween-20 − (absence)): 0.67 µM; IC50 [3, 7]: 0.51 µM; IC50 ([3]; read-out: IC50 -Triton X-100): 0.33 µM
6 | Cc1nc(N=Nc2cc(S(=O)(=O)[O-])c3cc([N+](=O)[O-])cc(S(=O)(=O)[O-])c3c2)c(COP(=O)([O-])[O-])c(C=O)c1O.[Na+].[Na+].[Na+].[Na+] [PPNDS] | clearly reduced the generation of single-stranded Cy3 strand | 2.2 | 1.6 | 2 | – | – | – | IC50 [1, 4]: 700 nM
7 | CCC(CC)COC(=O)[C@H](C)N[P@](=O)(OC[C@H]1O[C@@](C#N)(c2ccc3c(N)ncnn23)[C@H](O)[C@@H]1O)Oc1ccccc1 [Remdesivir] | – | – | – | – | – | – | – | inhibition at 1 µM (SARS-CoV-2; Severe acute respiratory syndrome coronavirus 2, Vero C1008, 1 µM remdesivir alone, Vero E6 cells, read-out: inhibition of viral infection): < 20%
8 | C=CCn1c(CSc2ccccc2[N+](=O)[O-])n[nH]c1=S [SSYA10-001] | inhibited nsp13 with less efficiency | – | 28 | 7.5 | – | 81 µM and 80.5 µM | moderate sensitivity to detergent | IC50 [3, 7]: 21 µM; IC50 ([3]; read-out: IC50 -Triton X-100): 14 µM
9 | Cc1ccc(C(=O)Nc2ccc(S(=O)(=O)O)c3cc(S(=O)(=O)O)cc(S(=O)(=O)O)c23)cc1NC(=O)c1cccc(NC(=O)Nc2cccc(C(=O)Nc3cc(C(=O)Nc4ccc(S(=O)(=O)O)c5cc(S(=O)(=O)O)cc(S(=O)(=O)O)c45)ccc3C)c2)c1 [Suramin] | clearly reduced the generation of single-stranded Cy3 strand | – | – | – | 0.94 µM | ~10 µM | largely insensitive to detergent addition | EC50 (SARS-CoV-2; [8]): 9.9 µM; IC50 [1, 4]: 500 nM; IC50 [3, 9]: 1.6 µM; IC50 [3, 10]: 0.74 µM; IC50 ([3]; IC50 + 0.01% Triton X-100): 1.6 µM; IC50 ([3]; IC50 -Triton X-100): 1.3 µM; IC50 ([3]; IC50 against nsp13 in vitro): ~1 µM; IC50 ([3]; IC50 nsp13): 1.5 µM
10 | CC1(C)CCC(CN2CCN(c3ccc(C(=O)NS(=O)(=O)c4ccc(NCC5CCOCC5)c([N+](=O)[O-])c4)c(Oc4cnc5[nH]ccc5c4)c3)CC2)=C(c2ccc(Cl)cc2)C1 [Venetoclax/ABT-199, Venetoclax] | – | – | – | – | 25 µM | – | – | IC50 RdRp ([1]; RNA (RdRp substrate), 0.3 mM each NTP, 0.02% Tween-20 in RdRp assay buffer): No inhibition; IC50 ([3]; IC50 + 0.02% Tween-20): > 250 µM; IC50 nsp13 ([3]; RNA (nsp13 substrate), 0.3 mM ATP, 0.02% Tween-20 in RdRp assay buffer): No inhibition
11 | COc1cc(C(=O)NS(=O)(=O)c2ccccc2C)ccc1Cc1cn(C)c2ccc(NC(=O)OC3CCCC3)cc12 [Zafirlukast] | – | 48 | – | – | 3.6 µM and 6.6 µM | – | – | IC50 [1]: 46000 nM; IC50 [3, 9]: 50 µM; IC50 [3, 10]: 1.5 µM; IC50 ([3]; IC50 + 0.01% Triton X-100): 22 µM; IC50 ([3]; IC50 + 0.02% Tween-20): 53 µM and 55 µM; IC50 ([3]; IC50 -Triton X-100): 7.4 µM
